This note sets out measurements from patent EP0052964A1, “Adenine derivatives possessing pharmacological activity” (BEECHAM GROUP PLC, priority 1980, dated 1982).

This series deals with male rats (Sprague-Dawley from Tuck's). Briefly: hypocholesterolaemic and hypotriglyceridaemic effects in rats fed a sucrose-rich semisynthetic diet containing 0.25% cholesterol. The format is in vivo. As to conditions: percentage change from control values, compound at 0.1% in diet for 7 days. On the procedure:
The hypocholesterolaemic and hypotriglyceridaemic effects of 6-amino-9-[(2-hydroxy-3-thiomorpholino)propyl]purine (Compound 1) and 6-amino-9-([2-hydroxy-3-(2,6-cis-dimethylmorpholino)]propyl)-purine (Compound 2) were assessed as follows.
Groups of 8 male rats (Sprague-Dawley from Tuck's) weighing 80-100g were adapted to a sucrose-rich semisynthetic diet containing 0.25% cholesterol by progressive dilution over 7 days of a powdered commercially available diet (Oxoid). Compounds were then added to the semisynthetic diet at the level of 0.1% and these diets were fed for 7 days. The rats were then killed and the serum total cholesterol and triglyceride were measured by a Technicon Auto-Analyser. The results are expressed as percentage change from control values.

For the compound `Nc1ncnc2c1ncn2CC(O)CN1CCSCC1` (stereo not drawn) [Compound 1, 6-amino-9-[(2-hydroxy-3-thiomorpholino)propyl]-purine], the “Liver wt. as % body wt.” value was “+1%”. For the same compound, where the note is “* = statistically significant”, the “Serum Triglyceride” value is given as -8 percentage. The “Serum Cholesterol” value (serum total cholesterol, * = statistically significant) is -57* percentage.
